{"source": "a melting point compilation (Tetko et al.)", "data": [{"units": {"melting point": "°C"}, "values": [{"compound": "S=C=Nc1ccc(N2CCOCC2)nc1", "melting point": "121 to 122"}, {"compound": "OCCN1CCN(CCCN2c3ccccc3Sc3ccc(Cl)cc32)CC1", "melting point": 94}, {"compound": "O=C(O)c1c[nH]cn1", "melting point": "243 to 245"}, {"compound": "CC(C)CCOC(=O)C(=O)OCCC(C)C", "melting point": -9}, {"compound": "CCCCCCCc1ccc(O)cc1", "melting point": 26.5}, {"compound": "NNC(=O)c1cc(OCC(F)(F)F)ccc1OCC(F)(F)F", "melting point": "86 to 88"}, {"compound": "O=S(=O)(C[C@@H](COCc1ccccc1)OCc1ccccc1)c1ccccc1", "melting point": "55 to 56"}, {"compound": "NC1CC1", "melting point": -10}, {"compound": "ClC(Cl)(Cl)CC(Cl)(Cl)Cl", "melting point": -27}, {"compound": "N#CC(=NOCC1OCCO1)c1ccccc1", "melting point": 77.7}, {"compound": "O=[N+]([O-])c1cc([N+](=O)[O-])c(C(/C(=N/Nc2ccccc2)c2ccccc2)c2ccccc2)cc1Cl", "note": "(stereo not given)", "melting point": "195 to 196"}, {"compound": "S=C=Nc1ccc2c(c1)OCO2", "melting point": "57 to 59"}, {"compound": "CC(C)CCOC(=O)C=Cc1ccc(C=CC(=O)OCCC(C)C)c([N+](=O)[O-])c1", "melting point": "93 to 94"}, {"compound": "O=C(O)CC(CC(=O)O)c1ccc(Cl)cc1", "melting point": 166}, {"compound": "c1nnc(SCCSc2nnc[nH]2)[nH]1", "melting point": "197 to 200"}, {"compound": "CCOC(=O)C(C#N)=Cc1ccc(-c2ccccc2OC)o1", "melting point": "120 to 121"}, {"compound": "O=C(Cl)c1ccc(Cl)c(Cl)c1", "melting point": 32}, {"compound": "Cc1c(N)cc([N+](=O)[O-])cc1C(N)=O", "melting point": 199}, {"compound": "CCN(CC)C(=O)N1CCN(C)CC1", "melting point": 48}, {"compound": "Oc1cc(Cl)cc(Cl)c1Cl", "melting point": 62}, {"compound": "O=C(Cl)c1ccc2nccnc2c1", "melting point": 119}, {"compound": "O=C(Nc1ccccc1Br)C(C(F)(F)F)C(F)(F)F", "melting point": "183 to 185"}, {"compound": "Cc1cc([N+](=O)[O-])cc(C)c1O", "melting point": "164 to 169"}, {"compound": "O=C(O)C(=S)CC1CCCC(CC(=S)C(=O)O)C1", "note": "(stereo not given)", "melting point": 85}, {"compound": "O=C(O)C=CC(=O)Nc1ccc(Cl)cc1", "melting point": "200 to 203"}, {"compound": "CCOc1nc2ccccc2c(=O)n1Cc1cccnc1", "melting point": "67 to 70"}, {"compound": "O=C(O)c1cnn(-c2ccc([N+](=O)[O-])cc2[N+](=O)[O-])c1", "melting point": "260 to 262"}, {"compound": "N#CC(=Cc1cccnc1)C1N=c2ccccc2=N1", "melting point": 229}, {"compound": "COc1cc([N+](=O)[O-])ccc1N1CCCC1", "melting point": 60}, {"compound": "N#Cc1ccc(O)c(Cl)c1", "melting point": "150 to 153"}, {"compound": "Clc1cc2c(cc1Cl)Oc1cc(Cl)c(Cl)cc1O2", "melting point": 305}, {"compound": "CSc1ncc(C=O)n1Cc1ccccc1", "melting point": "86 to 88"}, {"compound": "CC(O)C#N", "note": "(stereo not given)", "melting point": -40}, {"compound": "C=COCCCl", "melting point": -70}, {"compound": "COc1ccc(C(=O)OC(COc2ccc(C=CC(=O)c3ccccc3)cc2)COc2ccc(C(=O)C=Cc3ccccc3)cc2)cc1", "note": "(stereo not given)", "melting point": 74}, {"compound": "O=C(C=Cc1ccc(Br)cc1)c1ccc(Cl)cc1", "melting point": "167 to 168"}, {"compound": "COc1ccc(S(N)(=O)=O)cc1", "melting point": 112}, {"compound": "OC1C2CCC1C1C=CC2O1", "note": "(stereo not given)", "melting point": "121 to 123"}, {"compound": "Cc1cc(=O)oc2cc(O)cc(O)c12", "melting point": 299}, {"compound": "CCCc1ssc(=S)c1C", "melting point": 49}, {"compound": "CCOC(=O)C1=C(C)NC(=O)NC1c1ccccc1[N+](=O)[O-]", "note": "(stereo not given)", "melting point": 220}, {"compound": "CC1=C(O)C(=O)CC1", "melting point": 106}, {"compound": "O=C(O)CCCOc1ccccc1", "melting point": 63}, {"compound": "Nc1ccc2c3c(cccc13)-c1ccccc1-2", "melting point": 116}, {"compound": "CS(=O)(=O)Nc1ccc([N+](=O)[O-])cc1Oc1ccccc1", "melting point": 144}, {"compound": "CC1=C(C(=O)OC(C)C)C(c2ccccc2)NC(=S)N1", "note": "(stereo not given)", "melting point": 177}, {"compound": "CC(=O)C(=NNc1cccc([N+](=O)[O-])c1)C(C)=O", "melting point": 184}, {"compound": "O=Cc1ccc(Cl)c(F)c1", "melting point": 47}, {"compound": "CC1(C)CCC2(C(=O)O)CCC3(C)C(=CCC4C5(C)CCC(O)C(C)(C=O)C5CCC43C)C2C1", "note": "(stereo not given)", "melting point": 275}, {"compound": "O=C(Cl)c1cccc(C(=O)Cl)n1", "melting point": 59}, {"compound": "O=C(O)c1ncccc1N1CCCCC1", "melting point": "102 to 109"}, {"compound": "COc1cc(C)oc(=O)c1", "melting point": 86}, {"compound": "O=C(Nc1ccccc1)OC1CCCCCC1OC(=O)Nc1ccccc1", "note": "(stereo not given)", "melting point": "217 to 219"}, {"compound": "CC(C)N(C=O)C(C)C", "melting point": "10 to 11"}, {"compound": "COc1ccc2ccccc2c1Br", "melting point": 80}, {"compound": "C=CC(OC(C)=O)OC(C)=O", "melting point": -37.6}, {"compound": "C=COCCCCCCCCCCCCCCCC", "melting point": 16}, {"compound": "CC12CCC3C(C(=O)CC4CC(O)(C(Cl)(Cl)Cl)CCC43C)C1CCC2=O", "note": "(stereo not given)", "melting point": "248 to 254"}, {"compound": "O=[N+]([O-])c1ccc2c(c1)=NC(=c1ccc(=C3N=c4cc([N+](=O)[O-])ccc4=C3O)cc1)C=2O", "melting point": 360}, {"compound": "Cc1cc(C)n(-c2ccc(C(=O)O)cc2)n1", "melting point": 163}, {"compound": "O=C(C=Cc1ccc(-c2ccccc2[N+](=O)[O-])o1)c1ccco1", "melting point": "168 to 169"}, {"compound": "O=C(O)c1ccc(O)c(O)c1", "melting point": 201}, {"compound": "Brc1cnc(N2CCCC2)nc1OCc1ccccc1", "melting point": 107}, {"compound": "CC(=O)C1(O)C(C)CC2C3CC=C4CC(O)CCC4(C)C3CCC21C", "note": "(stereo not given)", "melting point": "224 to 230"}, {"compound": "O=C(O)C1=CCCC1", "melting point": 119}, {"compound": "COc1ccccc1-c1nnc2n1NC(c1ccc([N+](=O)[O-])cc1)S2", "note": "(stereo not given)", "melting point": 196}, {"compound": "CC(=O)c1ccc(O)c(C(F)(F)F)c1", "melting point": 176}, {"compound": "C=CC(=C)Cl", "melting point": -130}, {"compound": "CCOC(=O)c1sc(SC)c2c1-c1ccccc1N(C)S2(=O)=O", "melting point": "190 to 193"}, {"compound": "O=C(NC1C2C=CC(C2)C1C(=O)O)OCc1ccccc1", "note": "(stereo not given)", "melting point": "119 to 123"}, {"compound": "CC(C)N=c1cc2n(-c3ccc(Cl)cc3)c3ccccc3nc-2cc1Nc1ccc(Cl)cc1", "melting point": 211}, {"compound": "O=[N+]([O-])c1cc(CO)ccc1O", "melting point": "94 to 98"}, {"compound": "C=C1C(=O)C23C4CC5C(C)(C)CCC(OC(C)=O)C5(C(OC(C)=O)O4)C2C(OC(C)=O)CC1C3OC(C)=O", "note": "(stereo not given)", "melting point": 230}, {"compound": "CSc1ccc(-n2c(-c3ccccc3)cc(C(=O)O)c2C)cc1", "melting point": "202 to 203"}, {"compound": "CCOc1cccc(/C=C/C(=O)O)c1", "melting point": 133}, {"compound": "Nn1c(Cc2ccc(Cl)cc2)n[nH]c1=O", "melting point": 181}, {"compound": "Sc1nc2ccccc2o1", "melting point": "192 to 195"}, {"compound": "CCCCCCCCCCCCCC(C)CC", "note": "(stereo not given)", "melting point": -15}, {"compound": "O=c1cc(C(F)(F)F)c2ccc(O)cc2o1", "melting point": "179 to 182"}, {"compound": "O=C(Cl)c1cc([N+](=O)[O-])cc([N+](=O)[O-])c1", "melting point": 74}, {"compound": "CCCCCCCCCCCCCCCN", "melting point": 37.3}, {"compound": "Cn1c(=O)c(C(N)=S)cn(-c2ccccc2)c1=O", "melting point": "229 to 232"}, {"compound": "O=Nc1c(-c2ccc3ccccc3c2)nc2ncccn12", "melting point": 249}, {"compound": "Cc1cnc(C(=O)O)c[n+]1[O-]", "melting point": 178}, {"compound": "O=c1cc(C(F)(F)F)c2cc(Cl)c(O)cc2o1", "melting point": "178 to 182"}, {"compound": "COc1ccc(C(=O)c2cccc(Cl)c2)cc1[N+](=O)[O-]", "melting point": "109 to 114"}, {"compound": "CC1(C)C(C=C(Cl)Cl)C1C(=O)OCc1c(F)c(F)cc(F)c1F", "note": "(stereo not given)", "melting point": 32}, {"compound": "O=C(O)[C@@H]1Cc2c([nH]c3ccccc23)CN1", "melting point": "295 to 296"}, {"compound": "CCOC(=O)c1sc(N)c(C(=O)OCC)c1C", "melting point": 115}, {"compound": "Oc1ccc2cccc(Cl)c2c1", "melting point": 101}]}]}
